Results: US20260345621A1, “GABAA RECEPTOR MODULATORS AND USES THEREOF” (Engrail Therapeutics, Inc., priority 2022, published 2026)
Like-named read-outs stand apart in the source and are kept apart here.

Legend:
[1] = Multiple ascending dose study, plasma pharmacokinetics; format: in vivo, human (healthy volunteers); details: for AUC tau / Cmax at 288 h / half-life / Tmax at 288 h: Day 12; for AUC(0-t) at 24 h / Cmax at 24 h / Tmax at 24 h: Day 1
Experimental: A clinical study was developed to evaluate safety, tolerability, pharmacokinetics, and pharmacodynamics of Compound 1 at plasma steady-state in 40 healthy human volunteers. Compound 1 (provided as Compound 1 phosphate) was administered to participants as multiple ascending doses of 0.5 mg (N=6), 1.0 mg (N=6), 1.5 mg (N=6), 2.0 mg (N=6), or 5.0 mg (N=6) once daily (QD) for 12 days.
Blood samples were collected, and plasma concentrations were measured using a validated high performance liquid chromatography/liquid chromatography-mass spectrometry/mass spectrometry method. The PK parameters assessed included Cmax, Tmax, AUC from administration to the end of dosing (AUC0-t), AUC0-24, AUC0-inf, t1/2, terminal rate constant (λz), apparent total clearance of the drug from plasma (CL/F), and apparent volume of distribution during terminal phase after non-intravenous administration (Vz/F).
The plasma concentration data for Compound 1 were summarized by dose level and the planned sampling time points using descriptive statistics (n, SD, median, minimum, maximum, geometric mean, and coefficient of variance (CV %) for the geometric mean) for the PK Analysis Set.
Specifically, samples for PK analyses were taken on Day 1 and Day 12 pre-dose, 0.5, 1, 1.5, 3, 6, 8, 10, and 12 h post-dose, with additional samples taken on every dosing Day (24 hours after the previous day's dose) and 24, 72, 168, and 336 h after last dosing on Day 12. All individual Compound 1 concentrations were above the LLOQ of 0.0500 ng/mL at 0.5 h post-dose, except for 1 participant, for whom the concentration was above the LLOQ at 1 h post-dose.

[2] = Stability of solutions/suspensions at room temperature; format: physicochemical
From the text: The dosage forms provided herein may be prepared and placed in a container for storage at ambient or elevated temperature. […] This is beneficial because transportation of commercially viable dosage forms may benefit from stability at temperatures greater than those requiring refrigeration or sub-freezing environments during transportation and storage at the site of use.

[3] = test system: anxiety (elevated plus maze); assay: Elevated plus maze (EPM)
[4] = target: human GABAA receptor α2/β2/γ2 (Homo sapiens, UniProt P18507+P47869); assay: SyncroPatch platform, PAM mode, GABAA α2/β2/γ2
[5] = human, plasma, po, 2 mg, 2.0 mg oral QD, read-out: Cmax (mean)
[6] = human, plasma, po, 2 mg, 2.0 mg oral QD, read-out: Cmax (median)
[7] = human, plasma, po, 5 mg, 5.0 mg oral QD, read-out: Cmax (mean)
[8] = human, plasma, po, 5 mg, 5.0 mg oral QD, read-out: Cmax (median)
[9] = human, plasma, 0.5 mg oral QD, read-out: Tmax (median)
[10] = human, plasma, 1.0 mg oral QD, read-out: Tmax (median)
[11] = human, plasma, 1.5 mg oral QD, read-out: Tmax (median)
[12] = human, plasma, 2.0 mg oral QD, read-out: Tmax (median)
[13] = human, plasma, 5.0 mg oral QD, read-out: Tmax (median)

Sequence of human GABAA receptor α2/β2/γ2 (P47869 29-451): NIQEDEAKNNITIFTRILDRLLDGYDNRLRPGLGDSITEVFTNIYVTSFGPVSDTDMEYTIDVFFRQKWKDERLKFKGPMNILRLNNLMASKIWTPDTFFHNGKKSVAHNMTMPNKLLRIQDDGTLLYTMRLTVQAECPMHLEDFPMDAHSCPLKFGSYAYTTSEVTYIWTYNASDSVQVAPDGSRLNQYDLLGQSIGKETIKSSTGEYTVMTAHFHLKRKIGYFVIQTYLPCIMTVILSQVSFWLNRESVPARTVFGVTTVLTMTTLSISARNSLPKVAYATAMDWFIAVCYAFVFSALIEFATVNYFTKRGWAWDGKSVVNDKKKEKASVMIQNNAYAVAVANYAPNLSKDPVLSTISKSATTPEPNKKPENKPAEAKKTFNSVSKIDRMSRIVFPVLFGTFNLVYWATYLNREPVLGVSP
Sequence of human GABAA receptor α2/β2/γ2 (P18507 40-475): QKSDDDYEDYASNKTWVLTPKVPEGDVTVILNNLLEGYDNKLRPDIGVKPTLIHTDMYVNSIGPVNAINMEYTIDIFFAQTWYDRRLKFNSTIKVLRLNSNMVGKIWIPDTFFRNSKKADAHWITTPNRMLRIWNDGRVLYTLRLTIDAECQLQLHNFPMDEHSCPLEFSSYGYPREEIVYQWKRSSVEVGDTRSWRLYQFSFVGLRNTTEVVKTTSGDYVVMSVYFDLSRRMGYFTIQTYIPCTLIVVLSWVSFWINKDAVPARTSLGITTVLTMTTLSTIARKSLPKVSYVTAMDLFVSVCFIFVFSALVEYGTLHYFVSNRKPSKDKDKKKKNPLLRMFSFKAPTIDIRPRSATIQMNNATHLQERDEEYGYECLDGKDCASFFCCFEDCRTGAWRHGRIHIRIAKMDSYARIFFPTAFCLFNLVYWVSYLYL
Sequence of human GABAA receptor α2/β2/γ2 (P47870 25-512 partner limits assumed): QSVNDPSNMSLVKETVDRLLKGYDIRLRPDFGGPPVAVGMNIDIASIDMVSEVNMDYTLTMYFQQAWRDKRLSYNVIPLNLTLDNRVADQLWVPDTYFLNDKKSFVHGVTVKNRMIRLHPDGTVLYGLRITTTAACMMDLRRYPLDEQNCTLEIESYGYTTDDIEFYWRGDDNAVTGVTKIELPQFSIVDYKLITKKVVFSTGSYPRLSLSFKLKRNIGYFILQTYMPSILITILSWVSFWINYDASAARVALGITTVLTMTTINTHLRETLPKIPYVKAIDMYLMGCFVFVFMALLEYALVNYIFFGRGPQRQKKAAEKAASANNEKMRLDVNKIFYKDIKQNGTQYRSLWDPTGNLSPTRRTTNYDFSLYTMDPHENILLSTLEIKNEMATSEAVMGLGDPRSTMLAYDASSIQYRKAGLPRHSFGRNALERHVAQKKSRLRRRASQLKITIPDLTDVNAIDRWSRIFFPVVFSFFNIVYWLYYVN

CC(C)(O)c1cnn2c(-c3ccc(F)c(-c4c(F)cccc4C#N)c3)cnc2n1 [Compound 1, 2′,6-difluoro-5′-(3-(2-hydroxypropan-2-yl)imidazo[1,2-b][1,2,4]triazin-7-yl)-[1,1′-biphenyl]-2-carbonitrile]
AUC tau ([1]; human, plasma, po, 1.5 mg, 1.5 mg oral QD, read-out: AUCtau (median)): 738 ng·h/mL | Cmax at 288 h ([1]; human, plasma, po, 1.5 mg, 1.5 mg oral QD, read-out: Cmax (mean)): 41.7 ± 5 ng/mL | Cmax at 288 h ([1]; human, plasma, po, 1.5 mg, 1.5 mg oral QD, read-out: Cmax (median)): 42.6 ng/mL | half-life ([1]; human, plasma, po, 1.5 mg, 1.5 mg oral QD, read-out: t1/2 (mean) (converted)): 51 ± 18 h | half-life ([1]; human, plasma, po, 1.5 mg, 1.5 mg oral QD, read-out: t1/2 (median) (converted)): 49.1 h | AUC(0-t) at 24 h ([1]; human, plasma, po, 2 mg, 2.0 mg oral QD, read-out: AUC0-24 (mean)): 244 ± 48 ng·h/mL | AUC(0-t) at 24 h ([1]; human, plasma, po, 2 mg, 2.0 mg oral QD, read-out: AUC0-24 (median)): 226 ng·h/mL | Cmax at 24 h [1, 5]: 19.6 ± 4 ng/mL | Cmax at 24 h [1, 6]: 19.9 ng/mL | AUC tau ([1]; human, plasma, po, 2 mg, 2.0 mg oral QD, read-out: AUCtau (mean)): 873 ± 331 ng·h/mL | AUC tau ([1]; human, plasma, po, 2 mg, 2.0 mg oral QD, read-out: AUCtau (median)): 891 ng·h/mL | Cmax at 288 h [1, 5]: 49.8 ± 17 ng/mL | Cmax at 288 h [1, 6]: 48.2 ng/mL | half-life ([1]; human, plasma, po, 2 mg, 2.0 mg oral QD, read-out: t1/2 (mean) (converted)): 61 ± 26 h | half-life ([1]; human, plasma, po, 2 mg, 2.0 mg oral QD, read-out: t1/2 (median) (converted)): 52.3 h | AUC(0-t) at 24 h ([1]; human, plasma, po, 5 mg, 5.0 mg oral QD, read-out: AUC0-24 (mean)): 642 ± 125 ng·h/mL | AUC(0-t) at 24 h ([1]; human, plasma, po, 5 mg, 5.0 mg oral QD, read-out: AUC0-24 (median)): 609 ng·h/mL | Cmax at 24 h [1, 7]: 49.7 ± 13 ng/mL | Cmax at 24 h [1, 8]: 49.5 ng/mL | AUC(0-t) at 24 h ([1]; human, plasma, po, 5 mg, 5.0 mg oral QD, read-out: highest individual AUC0-24): 853 ng·h/mL | AUC tau ([1]; human, plasma, po, 5 mg, 5.0 mg oral QD, read-out: AUCtau (mean)): 1800 ng·h/mL | AUC tau ([1]; human, plasma, po, 5 mg, 5.0 mg oral QD, read-out: AUCtau (median)): 1800 ng·h/mL | Cmax at 288 h [1, 7]: 99.1 ng/mL | Cmax at 288 h [1, 8]: 106 ng/mL | AUC tau ([1]; human, plasma, po, 5 mg, 5.0 mg oral QD, read-out: highest individual AUCtau): 2170 ng·h/mL | half-life ([1]; human, plasma, po, 5 mg, 5.0 mg oral QD, read-out: t1/2 (mean) (converted)): 39 ± 9 h | half-life ([1]; human, plasma, po, 5 mg, 5.0 mg oral QD, read-out: t1/2 (median) (converted)): 37.1 h | concentration at 0.5 h ([1]; human, plasma, po, 0.5 h post-dose, all except 1 participant, read-out: individual plasma concentrations versus LLOQ): > 0.05 ng/mL | Tmax ([1]; human, plasma, po, Day 1 and Day 12, all doses except 5.0 mg on Day 1, read-out: Tmax (median)): 3 h | Tmax at 24 h [1, 9]: 3 h | Tmax at 288 h [1, 9]: 3 h | Tmax at 24 h [1, 10]: 3 h | Tmax at 288 h [1, 10]: 3 h | Tmax at 24 h [1, 11]: 3 h | Tmax at 288 h [1, 11]: 3 h | Tmax at 24 h [1, 12]: 3 h | Tmax at 288 h [1, 12]: 3 h | Tmax at 24 h [1, 13]: 4.5 h | Tmax at 288 h [1, 13]: 3 h | Tmax at 24 h ([1]; human, plasma, up to 2.0 mg oral QD, read-out: Tmax (median)): 3 h | absorption ([1]; oral): rapidly absorbed | end of absorption and distribution phase ([1]; plasma, after which elimination phase commenced): approximately 12 h | concentration decline profile ([1]; plasma, oral QD): bi-exponential decline | variability in key PK parameters ([1]; up to 5.0 mg repeatedly for 12 days): acceptable | stability of standard solutions ([2]; 20 μg/mL): 6 days | stability of samples in 0.5% TYLOSE MH 300 ([2]; 0.12 to 7.2 mg/mL): 8 days | anxiolytic effect, chronic dosing ([3]; once daily for fourteen days, tested 1 hr after last dose): anxiolytic-like in rodents after acute and sub-chronic (14 days) dosing without any loss of effect | effect compared with reference anxiolytic chlordiazepoxide ([3]; oral): equivalent to what was demonstrated by the reference anxiolytic compound, chlordiazepoxide | distance traveled in the open arms ([3]; oral, 0.1, 0.3 and 1 mg/kg): increased distance traveled in the open arms | EC50 [4]: 800 pM | Emax [4]: 50%
